US20240226191A1, “COMPOSITIONS AND METHODS FOR TREATING DISEASE” (MICROBA IP PTY LTD, priority 2021, published 2024)
Entries after “also recorded” stand apart in the source; their conditions may differ.

Legend:
[1] = test system: mild to moderate flares of ulcerative colitis; conditions: cited from earlier work
T84 cells = assay: TEER recovery of barrier integrity after IFNγ (Maestro Pro system); type: cell-based; conditions: IFNγ for 72 hours, then treatment; extract relative to YG/V control
Protocol: The ability of MH23 to promote recovery of barrier integrity was also assessed by using the Maestro Pro system. Briefly, T84 cells were grown in (DMEM/F12) supplemented with 10% heat-inactivated foetal bovine serum and 1% Penicillin-Streptomycin in T75 flasks at 37° C., 5% C02 until approximately 75% confluent. Cells were seeded at a density of 0.1×10^6 cells in a total of 0.2 mL/well in 96-well CytoView-Z plates and incubated at 37° C., 5% C02 in the Maestro Pro system (Axion BioSystems, Atlanta, GA, USA). Media was refreshed every three days. Once stabile TEER measurements had been established (approximately 100 h after seeding), cells were stimulated with recombinant human IFNγ (100 ng/mL; R&D systems, Minneapolis, MN, USA). At 72 h post-stimulation, cells were washed with dPBS (ThermoFisher Scientific, Waltham, MA, USA) and media was replaced with DMEM/F12 only, or DMEM/F12 supplemented with Pyrrolidine dithiocarbamate (PDTC; 50 μM), 1×YG/V media control or 1×MH23-3 bacterial culture supernatant extracts prepared using Amberlite XAD-7 resin as previously outlined. All conditions were analysed as quadruplicates. At 5 h post-treatment, TEER measurements were recorded, and the observed effect of treatment was presented as the percentage difference in TEER value compared to the control (untreated T84 cells). Statistical significance was determined by unpaired t-test.

[2] = test system: IL-8 secretion in the human gut epithelial HCT116 cell line; assay: IL-8 secretion ELISA in IL-1β treated HCT116 cells (NF-κB activation); type: cell-based; conditions: HCT116 cells treated with IL-1β; cell free CS relative to the medium control
Protocol: For the ELISA assays, 1×10^4 cells/well of HCT116 cells were seeded in duplicate 96 well plates. HCT116 cells were treated with IL-1β (10 ng) and indole-3-carbinol (5 μM) or culture supernatant (10% v/v) as appropriate and incubated at 37° C. for 16 hours. Then, cell supernatants were collected and analysed using an IL-8 human uncoated ELISA Kit according to the manufacturer's instructions.

C57BL/6 female mice [3] = assay: Acute murine model of DSS-induced gut barrier dysfunction (3% DSS); type: in vivo, mouse
Protocol: (§1) M. faecis and F. prausnitzii strains were grown to early stationary phase in TY medium. The cell density of the individual cultures was calculated using a Helber Counting Chamber. To prepare the bacterial gavage solutions, individual cultures were centrifuged under a layer of sterile heavy mineral oil at 5,000 g for 10 minutes and the cell-free supernatant was then discarded. The cell pellets were washed in 1.5 mL of sterile anaerobic buffered diluent (38 mL/L each of salt solutions 2 & 3 (McSweeney et al., 2005), 1 mL/L of 0.1% (w/v) resazurin solution, 1 g/L L-cysteine) and then centrifuged again. Finally, the washed cell pellet was resuspended in half strength glycerol solution (15% v/v glycerol solution in anoxic buffered diluent) to a final concentration of 1×10^9 cells/mL, aliquoted and frozen at −80° C. until required. The viability of the cell preparations was confirmed by thawing a single aliquot and streaking on an agar plate. The identity and purity of the individual strain preparations was confirmed by whole genome sequencing.
(§2) Six-week-old C57BL/6 female mice purchased from Animal Resources Centres (Western Australia, Australia) were randomised and then co-housed for seven days prior to experimentation. To induce gut barrier dysfunction, mice were treated with 3% DSS ad libiteum in the drinking water for six days. Naïve age matched control mice were processed and received DSS free drinking water. All treatments started one day prior to provision of DSS and all mice were sacrificed two days after the final DSS treatment. For the treatments, mice were anesthetised with isofluorane and orally gavaged with 200 μl of bacterial preparations or vehicle control. Prednisone (2 mg/kg) was administered following anesthetisation by intraperitoneal injection. Body weights and stool consistency were recorded daily. Stool samples were collected daily. Following sacrifice, the colon, liver and spleen were collected for analysis. Blood was collected by cardiac puncture. In the therapeutic model, six-week-old C57BL/6 female mice purchased from Animal Resources Centres (Western Australia, Australia) were randomised and then co-housed for seven days prior to experimentation. To induce gut barrier dysfunction, mice were treated with 2.5% DSS ad libiteum in the drinking water for six days. Naïve age matched control mice were processed and received DSS free drinking water. All treatments started two days prior to completion of the DSS treatments and all mice were sacrificed five days after the final DSS treatment. For the treatments, mice were anesthetised with isofluorane and orally gavaged with 200 μl of bacterial preparations or vehicle control. Prednisone (2 mg/kg) was administered following anesthetisation by intraperitoneal injection. […]

C57BL/6 female mice [4] = assay: Therapeutic model of DSS induced murine colitis (2.5% DSS); type: in vivo, mouse; conditions: 2.5% DSS therapeutic model
Protocol: as §1, §2

[5] = test system: IL-23 mediated activation of STAT3; assay: HEK-Blue IL-23 reporter cell line STAT3 inducible SEAP reporter assay; type: cell-based, human; conditions: cell free culture supernatant (strains grown in TY medium); tofacitinib as inhibitor control
Protocol: To assess STAT3 suppressive activity, three independent colonies were inoculated and grown until early stationary phase. Then, each seed culture broth was used to inoculate two technical replicates each generating six technical replicates from three biological replicates. The technical replicates were grown until early stationary phase and then cell free culture supernatant was harvested as previously described (Giri et al., 2019). Culture supernatants were size fractionated by passing through a 3 kDa CENTRICON® column according to the manufacturer's (Merck Millipore) instructions.
STAT3 activity was assessed using the HEK Blue IL-23 cell line (Invivogen). Briefly, 50,000 cells per well were seeded in triplicate in a 96-well plate 24 hours prior to the start of the assay. Bacteria supernatant or sterile bacterial medium were mixed at a final concentration of 10%, 25%, or 50% v/v with recombinant human IL-23 (rhIL-23, R&D systems) at a final concentration of 5 ng/mL. This mixture was then added directly to the cells and incubated at 37° C. for 6 hours. […] STAT3 regulated SEAP reporter activity was assessed using Quanti Blue solution as recommended by the manufacturer (Invivogen). […] Cytotoxicity was assessed using MTT assay. […] Cytotoxicity was assessed by measuring absorbance at 540 nm as recommended by the manufacturer (Invitrogen, Thermo Fisher, Australia).

male BALB/c mice = assay: Acute murine model of TNBS-induced colitis; type: in vivo, mouse
Protocol: Groups of 5 or 10 male BALB/c mice were used. Mice were fasted overnight (Day 1) before 2,4,6-Trinitrobenzene sulfonic acid solution (TNBS challenge on Day 2. Distal colitis was induced by intracolonic instillation of TNBS (1 mg in 0.1 mL 50% ethanol) after which, animals were kept in a vertical position for 30 seconds to ensure that the solution remained in the colon. For the treatments, mice were orally gavaged with 200 μl of M. faecis MH23-3 at 1×10^9 cells/day or vehicle (sterile glycerol and phosphate salt solution) starting from Day 1 (i.e., 1 day before TNBS) to Day 5 for a total of 5 consecutive days (Days 1-5). The positive control Cyclosporin A was given at 75 mg/kg by oral gavage once daily from Day 1 (i.e., 1 day before TNBS) to Day 4 for a total of 4 consecutive days (Days 1-4). On the Day of TNBS challenge, vehicle, M. faecis MH-23.3 and Cyclosporine A were given at 2 hours before TNBS. Animals were sacrificed on Day 5; blood was collected from all animals by cardiac puncture. The colon tissue was also harvested and snap frozen with liquid nitrogen for cytokine measurement. On Day 5, the mice were euthanized by CO2 asphyxiation. Each colon was removed, rinsed, and then cut from 4 cm from the anus. The tissue sections were fixed in 10% formalin and kept in 70% ethanol for histopathology. […]

Nc1ccc(O)c(C(=O)O)c1 [Mesalmine]
response rates [1]: 40%-70%

S=C(S)N1CCCC1 [PDTC, Pyrrolidine dithiocarbamate]
TEER after IFNγ treatment (restoration of barrier integrity) (T84 cells): ameliorated

OCc1c[nH]c2ccccc12 [indole-3-carbinol]
IL-8 secretion [2]: prevented

C[C@]12C=CC(=O)C=C1CC[C@@H]1[C@@H]2C(=O)C[C@@]2(C)[C@H]1CC[C@]2(O)C(=O)CO [prednisone]
disease pathology / histopathological score (C57BL/6 female mice [3]): significant improvement | epithelial injury (C57BL/6 female mice [3]): ameliorated | inflammation score (C57BL/6 female mice [3]): ameliorated | DSS-induced weight loss (C57BL/6 female mice [3]; daily treatment): exacerbated | epithelial injury (C57BL/6 female mice [4]): ameliorated | inflammation score (C57BL/6 female mice [4]): ameliorated | pathology / histopathological score (C57BL/6 female mice [4]): ameliorated | endoscopic disease activity (C57BL/6 female mice [4]; relative to the vehicle treatment group): significant reduction

C[C@@H]1CCN(C(=O)CC#N)C[C@@H]1N(C)c1ncnc2[nH]ccc12 [tofacitinib]
IL-23 mediated STAT3 activation (SEAP reporter activity) [5]: prevented; also recorded: inhibits

cyclosporine A
TNBS-induced histological damage (male BALB/c mice): ameliorated
